Measured values as given in US20240002388A1, “PYRIMIDINONE COMPOUNDS AND USES THEREOF” (HUTCHISON MEDIPHARMA LIMITED, priority 2020, published 2024).

Each compound was assayed on L929 cell line (mouse fibroblastoma cell line) (assay: L929 cell viability assay (mTNF-α + Z-VAD-FMK induced necroptosis)). Conditions: Mus musculus, L929, 20 h, L929 cells, mTNF-α 0.1 μg/mL + Z-VAD-FMK 5 μM, CellTiter-Glo.
Assay type: cell-based
Procedure: L929 cell line (mouse fibroblastoma cell line): purchased from ATCC (American Type Culture Collection) Cell Bank, cultured in 5% CO2, 37° C. incubator, and MEM medium which contains L-Glutamine, with 10% FBS was used. • MEM medium: GIBCO, Cat #11095080; • Fetal bovine serum (FBS): GIBCO, Cat #10099-141C; • Dimethyl sulfoxide (DMSO): Sigma, Cat #D2650; • 0.25% Trypsin-EDTA: GIBCO, Cat #25200072; • Recombinant Mouse TNF-alpha Protein (mTNF-α): R&D system, Cat #410-MT-050; • Pan-Caspase inhibitor (Z-VAD-FMK): Selleckchem, Cat #S7023; • CellTiter-Glo 2.0 Cell Viability Assay kit: Promega, Cat #G9242; • Microwell plate reader: Envision, Perkin Elmer; • 96-well plate: Corning, Cat #3917.
The L929 cells at the logarithmic phase were taken out, and the supernatant was discarded. After trypsinization and cell shedding, 10% FBS-containing medium was added for neutralization, and the supernatant was discarded after centrifugation. The cells were re-suspended using 10% FBS-containing medium, adjusted to 7×10^4 cells/ml, added to 96-well microplate at 70 μL/well, i.e., 4.9×10^3 cells/well. Then the plate was incubated in a 5% CO2, 37° C. cell incubator overnight.
After incubating overnight, the 96-well plate was taken out, the medium was discarded, and the plate was washed with 1% FBS-containing MEM medium. Then 1% FBS-containing MEM medium was added at 70 μL/well, and the plate was cultured in a 5% CO2, 37° C. cell incubator. After incubating for 1 hour, the test compound was diluted to the corresponding concentrations using DMSO with 3-fold serial dilution, then the corresponding concentration of DMSO diluted solution was diluted into 1% FBS-containing MEM medium, and 10 μL/well of the diluted test compound with different concentrations (final concentrations of test compound were 10, 3.33, 1.11, 0.37, 0.12, 0.04, 0.014 and 0.005 μM, while final concentration of DMSO was 0.3%) or 10 μL/well control solution (3% DMSO) were added to the cell culture system respectively, with the total volume being 80 μL/well. Then 10 μL of Z-VAD-FMK solution diluted with 1% FBS-containing MEM medium (final concentration of 5 μM) or 10 μL of control solution (2.5% DMSO) was added to each well, with the total volume being 90 μL/well. The plate was incubated in a 5% CO2, 37° C. cell culture incubator for 1 hour.
After incubating for 1 hour, 10 μL of recombinant mouse TNF-α protein solution diluted with 1% FBS-containing MEM medium (final concentration of 0.1 μg/mL) or 10 μL control solution (1% FBS-containing MEM medium) was added to each well. The plate was incubated in a 5% CO2, 37° C. cell culture incubator for 20 hours.
The cell culture plate was taken out from the incubator, and left to stand at room temperature for 30 minutes. Meanwhile, CellTiter-Glo viability assay kit was put from freezer to room temperature, and 50 μL of CellTiter-Glo reagent was added to all wells, the plate was shaken for 1 minutes, protected from light at room temperature for 10 minutes then read the plate on Envision to get the luminescence signal.
The 96-well plate in the dark was taken out, and the chemiluminescence was determined using the Envision microwell plate reader as the signal value of each well.
The mean signal value of the wells of the mixed solution of recombinant mouse TNF-alpha protein (final concentration of 0.1 μg/mL) and Pan-Caspase inhibitor (final concentration of 5 μM) was used as the lower value, and the mean signal value of the wells without stimulation was used as the upper value. According to the signal value of each well, the inhibition rate of each concentration of every compound was calculated, and the IC50 value of compound was obtained by Model 205 in XL-Fit 5.3 software (ID Business Solutions Limited).
Inhibition rate %=[(Luminescence readout of treated compound−Luminescence readout of positive control)/(Luminescence readout of negative control−Luminescence readout of positive control)]×100%, wherein
Work on `CC(C)n1cncc(-c2ccc(C3(NC(=O)c4ncc5cnn(C(C)C6CC6)c5n4)CC3)cc2)c1=O` (racemic) [Compound 59, 1-(1-cyclopropylethyl)-N-(1-(4-(1-i-propyl-6-oxo-1,6-dihydropyrimidin-5-yl)phenyl)cyclopropyl)-1H-pyrazolo[3,4-d]pyrimidine-6-carboxamide] yielded an IC50 of 17 nM.
Compound `CC(C)n1ncc2cnc(C(=O)NC3(c4ccc(-c5cncn([C@H](C)C(F)(F)F)c5=O)cc4F)CC3)nc21` (stereo in doubt) [Compound 46] has an IC50 of 19 nM.
With `CC(C)n1ncc2cnc(C(=O)NC3(c4ccc(-c5cncn([C@@H](C)C(F)(F)F)c5=O)cc4F)CC3)nc21` (stereo in doubt) [Compound 47] the IC50 was 24 nM.
With `CC(C)n1ncc2cnc(C(=O)NC3(c4ccc(-c5cncn(C6CCOC6)c5=O)cc4)CC3)nc21` (stereo in doubt) [Compound 80, (R)-1-i-propyl-N-(1-(4-(6-oxo-1-(tetrahydrofuran-3-yl)-1,6-dihydropyrimidin-5-yl)phenyl)cyclopropyl)-1H-pyrazolo[3,4-d]pyrimidine-6-carboxamide] the IC50 was 297 nM.
`CC(C)n1ncc2cnc(C(=O)NC3(c4ccc(-c5cncn(C6CCOC6)c5=O)cc4)CC3)nc21` (stereo in doubt) [Compound 81, (S)-1-i-propyl-N-(1-(4-(6-oxo-1-(tetrahydrofuran-3-yl)-1,6-dihydropyrimidin-5-yl)phenyl)cyclopropyl)-1H-pyrazolo[3,4-d]pyrimidine-6-carboxamide] showed an IC50 of 258 nM.
`CC(C#N)n1cncc(-c2ccc(C3(NC(=O)c4ncc5cnn(C(C)C)c5n4)CC3)cc2)c1=O` (stereo in doubt) [Compound 82, (R)—N-(1-(4-(1-(1-cyanoethyl)-6-oxo-1,6-dihydropyrimidin-5-yl)phenyl)cyclopropyl)-1-i-propyl-1H-pyrazolo[3,4-d]pyrimidine-6-carboxamide] showed an IC50 of 359 nM.
With `CC(C#N)n1cncc(-c2ccc(C3(NC(=O)c4ncc5cnn(C(C)C)c5n4)CC3)cc2)c1=O` (stereo in doubt) [Compound 83, (S)—N-(1-(4-(1-(1-cyanoethyl)-6-oxo-1,6-dihydropyrimidin-5-yl)phenyl)cyclopropyl)-1-i-propyl-1H-pyrazolo[3,4-d]pyrimidine-6-carboxamide] the IC50 was 199 nM.
With `CC(C)n1ncc2cnc(C(=O)NC3(c4ccc(-c5cncn(C)c5=O)cc4)CC3)nc21` [Compound 1, 1-isopropyl-N-(1-(4-(1-methyl-6-oxo-1,6-dihydropyrimidin-5-yl)phenyl)cyclopropyl)-1H-pyrazolo[3,4-d]pyrimidine-6-carboxamide] the IC50 was 1250 nM.
For `CC(C)n1ncc2cnc(C(=O)NC3(c4ccc(-c5cncn(C)c5=O)cn4)CC3)nc21` [Compound 2], the IC50 was 7450 nM.
Compound `Cn1cncc(-c2ccc(C3(NC(=O)c4nnc(Cc5ccccc5)[nH]4)CC3)cc2)c1=O` [Compound 3] has an IC50 of 4280 nM.
With `Cn1cncc(-c2ccc(C3(NC(=O)c4ncc5cnn(-c6ccccc6)c5n4)CC3)cc2)c1=O` [Compound 4] the IC50 was 721 nM.
For `Cn1cncc(-c2ccc(C3(NC(=O)c4cc(Cc5ccccc5)on4)CC3)cc2)c1=O` [Compound 5], the IC50 was 2500 nM.
In the case of `CC(C)Cc1nc(C(=O)NC2(c3ccc(-c4cncn(C)c4=O)cc3)CC2)ncc1Cl` [Compound 6], the IC50 is reported as 299 nM.
`Cn1cncc(-c2ccc(C3(NC(=O)c4ncn(Cc5ccccc5)n4)CC3)cc2)c1=O` [Compound 8] was tested, and the IC50 was 1760 nM.
`Cn1cncc(-c2ccc(C3(NC(=O)c4noc(Cc5ccccc5)n4)CC3)cc2)c1=O` [Compound 9] gave an IC50 of 2810 nM.
For `Cn1cncc(-c2ccc(C3(NC(=O)c4ncc(Cc5ccccc5)o4)CC3)cc2)c1=O` [Compound 10], the IC50 was 676 nM.
In the case of `Cn1cncc(-c2ccc(C3(NC(=O)c4nnc(Cc5ccccc5)o4)CC3)cc2)c1=O` [Compound 11], the IC50 is reported as 9120 nM.
`CC(C)n1ncc2cnc(C(=O)NC3(c4ccc(-c5cncn(C6CC6)c5=O)cc4)CC3)nc21` [Compound 12] gave an IC50 of 1020 nM.
`CC(C)n1cncc(-c2ccc(C3(NC(=O)c4nnc(Cc5ccccc5)o4)CC3)cc2)c1=O` [Compound 13] was tested, and the IC50 was 195 nM.
`CC(C)n1cncc(-c2ccc(C3(NC(=O)c4nc5n(n4)[C@@H](c4ccccc4)CC5)CC3)cc2)c1=O` [Compound 15] was tested, and the IC50 was 2360 nM.
With `CC(C)n1cncc(-c2ccc(C3(NC(=O)c4nc5n(n4)[C@H](c4ccccc4)CC5)CC3)cc2)c1=O` [Compound 16] the IC50 was 7 nM.
Work on `CC(C)n1cncc(-c2ccc(C3(NC(=O)c4ncn(Cc5ccccc5)n4)CC3)cc2)c1=O` [Compound 17] yielded an IC50 of 25 nM.
With `Cn1cncc(-c2ccc(C3(NC(=O)c4nnc(Cc5c(F)cccc5F)[nH]4)CC3)cc2)c1=O` [Compound 18] the IC50 was 1720 nM.
`CC(C)n1cncc(-c2ccc(C3(NC(=O)c4ncc5cnn(-c6ccccc6)c5n4)CC3)cc2)c1=O` [Compound 19] showed an IC50 of 61 nM.
Work on `CC(C)Cc1nc(C(=O)NC2(c3ccc(-c4cncn(C(C)C)c4=O)cc3)CC2)ncc1Cl` [Compound 22] yielded an IC50 of 28 nM.
For `CC(C)n1ncc2cnc(C(=O)NC3(c4ccc(-c5cncn(C)c5=O)c(F)c4)CC3)nc21` [Compound 23, N-(1-(3-fluoro-4-(1-methyl-6-oxo-1,6-dihydropyrimidin-5-yl)phenyl)cyclopropyl)-1-isopropyl-1H-pyrazolo[3,4-d]pyrimidine-6-carboxamide], the IC50 was 2700 nM.
With `CC(C)n1ncc2cnc(C(=O)NC3(c4ccc(-c5cncn(C)c5=O)c(Cl)c4)CC3)nc21` [Compound 25] the IC50 was 7600 nM.
With `CC(C)n1ncc2cnc(C(=O)NC3(c4ccc(-c5cncn(C)c5=O)cc4F)CC3)nc21` [Compound 26] the IC50 was 846 nM.
Work on `CC(C)n1ncc2cnc(C(=O)NC3(c4ccc(-c5cncn(C)c5=O)cc4)CC3)cc21` [Compound 28, 1-isopropyl-N-(1-(4-(1-methyl-6-oxo-1,6-dihydropyrimidin-5-yl)phenyl)cyclopropyl)-1H-pyrazolo[4,3-c]pyridine-6-carboxamide] yielded an IC50 of 5700 nM.
`CC(C)n1cncc(-c2ccc(C3(NC(=O)c4ncc5cnn(C(C)C)c5n4)CC3)cc2)c1=O` [Compound 29, 1-isopropyl-N-(1-(4-(1-isopropyl-6-oxo-1,6-dihydropyrimidin-5-yl)phenyl)cyclopropyl)-1H-pyrazolo[3,4-d]pyrimidine-6-carboxamide] was tested, and the IC50 was 34 nM.
In the case of `CC(C)n1ncc2cnc(C(=O)NC3(c4ccc(-c5cnc(N)n(C)c5=O)cc4)CC3)nc21` [Compound 30], the IC50 is reported as 2590 nM.
For `CC(C)n1cncc(-c2ccc(C3(NC(=O)c4ncc5cnn(C(C)C)c5n4)CC3)cc2Cl)c1=O` [Compound 33], the IC50 was 665 nM.
Work on `CC(C)n1cncc(-c2ccc(C3(NC(=O)c4ncc5cnn(C(C)C)c5n4)CC3)c(F)c2)c1=O` [Compound 34] yielded an IC50 of 78 nM.
Work on `CC(C)n1cncc(-c2ccc(C3(NC(=O)c4ncc5cnn(C(C)C)c5n4)CC3)cc2F)c1=O` [Compound 35] yielded an IC50 of 154 nM.
`CC(C)n1ncc2cnc(C(=O)NC3(c4ccc(-c5cncn(CC6CC6)c5=O)cc4)CC3)nc21` [Compound 36] was tested, and the IC50 was 84 nM.
For `CCn1cncc(-c2ccc(C3(NC(=O)c4ncc5cnn(C(C)C)c5n4)CC3)cc2)c1=O` [Compound 37], the IC50 was 186 nM.
`CC(C)n1ncc2cnc(C(=O)NC3(c4ccc(-c5cncn(CC(F)(F)F)c5=O)cc4)CC3)nc21` [Compound 38] gave an IC50 of 152 nM.
With `CC(C)n1ncc2cnc(C(=O)NC3(c4ccc(-c5cncn([C@H](C)C(F)(F)F)c5=O)cc4)CC3)nc21` [Compound 39] the IC50 was 59 nM.
With `CC(C)n1ncc2cnc(C(=O)NC3(c4ccc(-c5cncn([C@@H](C)C(F)(F)F)c5=O)cc4)CC3)nc21` [Compound 40] the IC50 was 109 nM.
